Measured values as given in ChEMBL document CHEMBL1130810, “Potent, selective benzenesulfonamide agonists of the human beta 3 adrenergic receptor” (Bioorg Med Chem Lett, 1998).

Experiments:
[1] = target: T1, Beta-1 adrenergic receptor (Homo sapiens, UniProt P08588); test: biochemical
[2] = target: Beta-3 adrenergic receptor (Homo sapiens, UniProt P13945); test: Agonist activity against cloned human beta-3 adrenergic receptor; type: functional
[3] = target: T2, Beta-2 adrenergic receptor (Homo sapiens, UniProt P07550); test: biochemical
Target sequence in this assay (P07550 whole entry): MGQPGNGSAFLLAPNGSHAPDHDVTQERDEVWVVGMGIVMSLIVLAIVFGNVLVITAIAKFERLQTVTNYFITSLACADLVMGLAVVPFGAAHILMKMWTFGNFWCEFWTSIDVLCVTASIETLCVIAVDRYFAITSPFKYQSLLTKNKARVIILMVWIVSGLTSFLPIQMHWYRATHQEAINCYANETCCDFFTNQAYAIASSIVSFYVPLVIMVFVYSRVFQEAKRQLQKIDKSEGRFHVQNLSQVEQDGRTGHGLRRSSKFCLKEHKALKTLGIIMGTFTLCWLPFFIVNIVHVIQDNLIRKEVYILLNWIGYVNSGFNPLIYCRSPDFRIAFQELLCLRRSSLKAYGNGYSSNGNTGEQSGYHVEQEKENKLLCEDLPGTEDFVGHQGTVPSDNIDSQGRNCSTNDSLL
Description: Binding affinity against cloned human beta-2 adrenergic receptor from CHO cells using [125I]iodocyanopindolol as the radioligand

[4] = target: T2, Beta-2 adrenergic receptor; test: Compound was tested for agonist activity against cloned human beta-2 adrenergic receptor at a concentration of 1000 nM; type: functional
Target sequence in this assay (P07550 whole entry, looked up): as the sequence (P07550 whole entry) above

[5] = target: T2, Beta-2 adrenergic receptor; test: Compound was tested for agonist activity against cloned human beta-2 adrenergic receptor; type: functional
Target sequence in this assay (P07550 whole entry): as above

[6] = target: T2, Beta-2 adrenergic receptor; test: Agonist activity against cloned human beta-2 adrenergic receptor as percent activation of adenyl cyclase activity at a concentration of 1000 nM; type: functional
Target sequence in this assay (P07550 whole entry, looked up): as the sequence (P07550 whole entry) above

[7] = target: T1, Beta-1 adrenergic receptor; test: (§1) Compound was tested for agonist activity against cloned human beta-1 adrenergic receptor; type: functional
[8] = target: T1, Beta-1 adrenergic receptor; test: Compound was tested for binding affinity against cloned human beta-1 adrenergic receptor from CHO cells using [125I]-iodocyanopindolol as radioligand; type: cell-based
[9] = target: T1, Beta-1 adrenergic receptor; test: Tested for binding affinity against cloned human beta-1 adrenergic receptor from CHO cells using [125I]iodocyanopindolol as the radioligand.; type: cell-based
[10] = target: T1, Beta-1 adrenergic receptor; test: as §1

T1 sequence (P08588 whole entry): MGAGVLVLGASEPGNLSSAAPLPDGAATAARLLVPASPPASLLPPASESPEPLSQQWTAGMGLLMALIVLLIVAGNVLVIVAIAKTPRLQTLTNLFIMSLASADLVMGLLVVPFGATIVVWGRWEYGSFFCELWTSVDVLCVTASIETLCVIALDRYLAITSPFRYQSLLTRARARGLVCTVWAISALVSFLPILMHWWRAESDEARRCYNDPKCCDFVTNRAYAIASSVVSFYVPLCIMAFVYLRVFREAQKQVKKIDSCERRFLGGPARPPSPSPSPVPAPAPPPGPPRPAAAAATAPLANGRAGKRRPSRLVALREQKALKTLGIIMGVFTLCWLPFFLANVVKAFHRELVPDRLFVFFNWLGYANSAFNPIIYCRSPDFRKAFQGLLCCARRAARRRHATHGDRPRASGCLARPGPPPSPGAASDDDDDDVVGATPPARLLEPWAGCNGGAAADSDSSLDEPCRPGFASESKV
Sequence of Beta-3 adrenergic receptor (P13945 whole entry): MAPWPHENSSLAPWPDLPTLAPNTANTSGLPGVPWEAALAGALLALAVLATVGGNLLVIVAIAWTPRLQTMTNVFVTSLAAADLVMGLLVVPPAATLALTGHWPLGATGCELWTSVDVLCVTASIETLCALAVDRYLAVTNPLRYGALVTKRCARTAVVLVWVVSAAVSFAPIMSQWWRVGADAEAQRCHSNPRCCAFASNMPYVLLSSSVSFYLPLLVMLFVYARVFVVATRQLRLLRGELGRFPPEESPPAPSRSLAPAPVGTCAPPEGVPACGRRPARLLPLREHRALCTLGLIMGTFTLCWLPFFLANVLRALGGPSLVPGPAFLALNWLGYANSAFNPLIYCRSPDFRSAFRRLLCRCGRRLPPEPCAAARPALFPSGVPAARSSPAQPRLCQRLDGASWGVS

SMILES | IC50 [1] | EC50 [2] | IC50 [3] | further results
COc1ccc(CC[C@@H](C)NC[C@H](O)COc2ccc(O)cc2)cc1 | – | 600 nM | – | EC50 [5]: 5 nM
COc1ccc(CC[C@H](C)NC[C@H](O)COc2ccc(O)cc2)cc1 | – | 200 nM | 20 nM | IC50 [8]: 10 nM
O=S(=O)(CCCc1ccccc1)Nc1ccc(CCNC[C@H](O)COc2ccc(O)cc2)cc1 | 1000 nM | 92 nM | 130 nM | –
O=S(=O)(Nc1ccc(CCNC[C@H](O)COc2ccc(O)cc2)cc1)c1ccc2ccccc2c1 | – | 5.4 nM | 630 nM | IC50 [9]: 9000 nM
COc1ccc(CCCNC[C@H](O)COc2ccc(O)cc2)cc1 | – | 600 nM | 63 nM | IC50 [7]: 15 nM
O=C(Nc1ccc(CCNC[C@H](O)COc2ccc(O)cc2)cc1)c1ccccc1 | 6.7 nM | 62 nM | 230 nM | –
COc1ccc(C[C@H](C)NC[C@H](O)COc2ccc(O)cc2)cc1 | – | 1000 nM | – | –
COc1ccc(CC[C@@H](C)NC[C@@H](O)COc2ccc(O)cc2)cc1 | – | 6000 nM | – | EC50 [5]: 30 nM
O=S(=O)(CCc1ccccc1)Nc1ccc(CCNC[C@H](O)COc2ccc(O)cc2)cc1 | 110 nM | 5.9 nM | 120 nM | –
C[C@@H](Cc1ccc(O)cc1)NC[C@H](O)COc1ccc(O)cc1 | 81 nM | 25 nM | 84 nM | –
O=S(=O)(Nc1ccc(CCNC[C@H](O)COc2ccc(O)cc2)cc1)c1cnc2ccccc2c1 | – | – | 240 nM | EC50 [10]: 300 nM; IC50 [9]: 500 nM
Oc1ccc(CCNC[C@H](O)COc2ccc(O)cc2)cc1 | 900 nM | 30 nM | 150 nM | –
Nc1ccc(CCNC[C@H](O)COc2ccc(O)cc2)cc1 | 1000 nM | 440 nM | 500 nM | –
COc1ccc(CC[C@H](C)NC[C@@H](O)COc2ccc(O)cc2)cc1 | – | 2000 nM | – | –
C[C@@H](CCc1ccc(O)cc1)NC[C@H](O)COc1ccc(O)cc1 | 15 nM | 12 nM | 10 nM | –
O=S(=O)(Cc1ccccc1)Nc1ccc(CCNC[C@H](O)COc2ccc(O)cc2)cc1 | 60 nM | 39 nM | 21 nM | –
CC(=O)Nc1ccc(CCNC[C@H](O)COc2ccc(O)cc2)cc1 | 25 nM | 27 nM | 11 nM | –

Continued, in another order:

IC50 [1] | EC50 [2] | IC50 [3] | SMILES | further results
1000 nM | 60 nM | 500 nM | CCCS(=O)(=O)Nc1ccc(CCNC[C@H](O)COc2ccc(O)cc2)cc1 | Max stimulation [4]: 4%
610 nM | 54 nM | 100 nM | O=S(=O)(Nc1ccc(CCNC[C@H](O)COc2ccc(O)cc2)cc1)c1ccccc1Cl | Activity [6]: 2%
510 nM | 0.77 nM | 180 nM | O=S(=O)(Nc1ccc(CCNC[C@H](O)COc2ccc(O)cc2)cc1)c1ccc(Br)cc1 | EC50 [7]: 340 nM
1000 nM | 4000 nM | 250 nM | CCCCCS(=O)(=O)Nc1ccc(CCNC[C@H](O)COc2ccc(O)cc2)cc1 | –
– | 4.8 nM | 280 nM | O=S(=O)(Nc1ccc(CCNC[C@H](O)COc2ccc(O)cc2)cc1)c1ccc(Cl)cc1 | EC50 [7]: 450 nM; IC50 [9]: 1000 nM
– | 15 nM | 370 nM | O=S(=O)(Nc1ccc(CCNC[C@H](O)COc2ccc(O)cc2)cc1)c1cccc(Cl)c1 | IC50 [9]: 1000 nM
830 nM | 110 nM | 220 nM | CS(=O)(=O)Nc1ccc(CCNC[C@H](O)COc2ccc(O)cc2)cc1 | –
2000 nM | 1500 nM | 3000 nM | O=S(=O)(Nc1ccc(CCNC[C@H](O)COc2ccc(O)cc2)cc1)C1CCCCC1 | EC50 [7]: 1200 nM
– | 4.3 nM | 190 nM | COc1ccc(S(=O)(=O)Nc2ccc(CCNC[C@H](O)COc3ccc(O)cc3)cc2)cc1 | IC50 [9]: 140 nM
100 nM | 25 nM | 58 nM | CC(C)S(=O)(=O)Nc1ccc(CCNC[C@H](O)COc2ccc(O)cc2)cc1 | –
180 nM | 6.3 nM | 190 nM | O=S(=O)(Nc1ccc(CCNC[C@H](O)COc2ccc(O)cc2)cc1)c1ccccc1 | –
> 10000 nM | 58 nM | 3000 nM | O=S(=O)(Nc1ccc(CCNC[C@H](O)COc2ccc(O)cc2)cc1)c1ccc(Cl)c(Cl)c1 | –
– | 2.6 nM | 170 nM | Cc1ccc(S(=O)(=O)Nc2ccc(CCNC[C@H](O)COc3ccc(O)cc3)cc2)cc1 | IC50 [9]: 150 nM
